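96-well plates; 48 h exposure; 5 concentrations. Endpoints by linear interpolation between flanking doses. Not reached: highest tested concentration assigned. GI50 marks 50% less growth.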 Activity calls are given as the source filed them. No stated cut-off is given here; in the data, active = GI50 up to about 1.1 µM and inactive = higher.

We go through 17 molecules from ChEMBL document CHEMBL1201862, “PubChem BioAssay data set” (2004).

Experiment in all cases: NCI tumour cell line growth inhibition, 48 h
For test [1], the system named is DMS-273.
The test system of test [2] is SNB-78.
Test [3] has as its system DMS-114.
In test [4] the test system is HOP-18.
Test [5] deals with M19-MEL.
Test [6] relates to LXFL 529.
Test [7] relates to RXF 631.
For test [8], the system named is MDA-MB-435.
Test [9] deals with MDA-N.

As for `Cn1c(=O)nc2n(-c3ccc(Br)cc3)c3ccccc3nc-2c1=O`, the GI50 in test [1] is 1.88 µM (inactive); in test [2], 14 µM (inactive); in [3], 2 µM (inactive); in [4], 5.6 µM (inactive); in [5] it was 1.49 µM (inactive); in [6], 12.2 µM (inactive). In test [7], the GI50 is 4.11 µM (inactive).
For the molecule `O=C1CSC(Cc2nc3ccccc3[nH]2)=N1`, the GI50 in test [1] was 15.4 µM (inactive); in [2] it was 40.5 µM (inactive); in test [3], 13.1 µM (inactive); in test [4], 23.4 µM (inactive); in test [5], 7.03 µM (inactive); in test [6], 16.3 µM (inactive).
Regarding `CCC(COC(=O)CC[C@@H](NC(=O)C(C)NC(=O)C(C)OC1C(O)C(CO)OC(OCc2ccccc2)C1NC(C)=O)C(N)=O)NC1c2ccccc2Nc2cccc([N+](=O)[O-])c21` (some centres not stated), the GI50 in test [1] is > 100 µM (inactive); in test [2], > 100 µM (inactive); in test [3], > 100 µM (inactive); in [4] it was 69.2 µM (inactive); in test [5], > 100 µM (inactive); in test [6], 41.8 µM (inactive).
Turning to `COc1cc2c(cc1OC)C(Cl)C(c1ccc(Cl)cc1)=C2Cl` (configuration not stated), the GI50 in [1] is 17.7 µM (inactive); in test [2] it was 13 µM (inactive); in test [3] it was 11.9 µM (inactive); in test [4], 15.9 µM (inactive); in [5], 17.1 µM (inactive); in test [6] it was 4.23 µM (inactive). In addition, in [7], the GI50 is 21.3 µM (inactive).
Consider `O=C1NP23(OCCO2)Oc2ccccc2C3(C(F)(F)F)O1` (configuration not stated), for which the GI50 in [1], in [2], in [3], in test [4], in [5] and in test [6] was > 100 µM (inactive) each time.
With `C[n+]1ccn2c3nc4ccccc4nc3c([O-])c(C#N)c21`, the GI50 in test [1] is > 100 µM (inactive); in test [2], > 100 µM (inactive); in test [8], > 100 µM (inactive); in [3] it was > 100 µM (inactive); in [4], 84.7 µM (inactive); in test [9], > 100 µM (inactive). Besides, the GI50 in test [5] was < 0.01 µM (active); in test [6], > 100 µM (inactive).
In the case of `CC(=O)Nc1ccc(C(=O)NN2C(=O)C(Cl)C2c2cc(Br)cc(Br)c2O)cc1` (configuration not stated), the GI50 in test [1], in [3], in [4], in test [5] and in test [6] was > 100 µM (inactive) throughout.
As for `C=C1CC(OC)(C(O)C(=O)N[C@H]2OCO[C@H]3C2O[C@H](C[C@H](O)COC)C(C)(C)C3OC)O[C@H](C)[C@@H]1C` (some centres not stated), the GI50 in test [1], in test [2], in test [3], in test [4] and in test [5] was < 0.00773 µM (active) throughout.
For the molecule `Cc1cc(NS(=O)(=O)c2ccc(NC(=O)c3cccc4cc5ccccc5nc34)cc2)no1`, the GI50 in test [1] is 13.8 µM (inactive); in [2] it was 29.9 µM (inactive); in test [3], 18.3 µM (inactive); in test [5], 16.6 µM (inactive); in [6] it was 15.8 µM (inactive); in test [7] it was 17.7 µM (inactive).
For `C=C(C(=C)P(=S)(c1ccccc1)c1ccccc1)P(=S)(c1ccccc1)c1ccccc1`, the GI50 in test [1] is > 100 µM (inactive); in test [2], > 100 µM (inactive); in test [3], 35.2 µM (inactive); in test [4], > 100 µM (inactive); in [5], > 100 µM (inactive); in test [6] it was > 100 µM (inactive).
On to `N#CC(OC1OC(COC2OC(CO)C(O)C(O)C2O)C(O)C(O)C1O)c1ccccc1` (configuration not stated), for which the GI50 in test [1], in test [2], in [3], in test [4] and in [5] was > 225 µM (inactive) throughout.
Take `CC(O)/C=C/C(CCC(C)CO)C(C)C` (configuration not stated): the GI50 in test [1], in test [2], in test [3], in test [5], in [6] and in test [7] was > 100 µM (inactive) throughout.
As to `O=C(O)CCc1cccc2c1oc1c(CCC(=O)O)cccc12`, the GI50 in test [1] is > 100 µM (inactive); in [2], 48.1 µM (inactive); in test [3], > 100 µM (inactive); in [4] it was > 100 µM (inactive); in test [5] it was > 100 µM (inactive); in test [6] it was > 100 µM (inactive).
Consider `COC(c1cccc(C(O)(C(F)(F)F)C(F)(F)F)c1)(C(F)(F)F)C(F)(F)F`, for which the GI50 is 19.3 µM (inactive) in test [1]; 18.6 µM (inactive) in [3]; 18.2 µM (inactive) in test [4]; 16.1 µM (inactive) in test [5]; 17.5 µM (inactive) in test [6].
Turning to `CSCC[C@@H](NC(=O)[C@H](CC(C)C)NC(=O)C(Cc1cnc[nH]1)NC(=O)CNC(=O)[C@@H](NC(=O)[C@H](C)NC(=O)[C@H](Cc1c[nH]c2ccccc12)NC(=O)[C@H](CCC(N)=O)NC(=O)[C@@H](N)CC(N)=O)C(C)C)C(N)=O` (some centres not stated), the GI50 in [1], in test [2], in test [3], in test [4] and in test [5] was > 100 µM (inactive) in each case.
As to `COc1cccc(NC(=O)CC(=O)n2nc(C)c(/N=N/c3ccccc3)c2C)c1`, the GI50 in test [1] was > 100 µM (inactive); in [2] it was > 100 µM (inactive); in test [3], > 100 µM (inactive); in [4], 12 µM (inactive); in test [5], > 100 µM (inactive); in test [6] it was > 100 µM (inactive). In addition, the GI50 in test [7] was > 100 µM (inactive).
Take `O=C1c2ccccc2CC1C1(O)C(=O)Nc2c(Cl)cc(Cl)cc21` (configuration not stated): the GI50 in [1] is 68.4 µM (inactive); in [2], > 100 µM (inactive); in test [3] it was 21.9 µM (inactive); in test [4], 14.1 µM (inactive); in test [6], 18.8 µM (inactive); in [7], > 100 µM (inactive).
